Source: paper PMC5121526, “Chemerin Elicits Potent Constrictor Actions via Chemokine‐Like Receptor 1 (CMKLR1), not G‐Protein‐Coupled Receptor 1 (GPR1), in Human and Rat Vasculature” (Journal of the American Heart Association: Cardiovascular …, 2016)
Ends that are not written are not given here.

What was measured:
Format in all cases: cell-based
human GPR1 = biological target: T1, human GPR1 (Homo sapiens, UniProt P46091); experiment: β‐Arrestin recruitment at GPR1
T1 construct: host or cells: CHO-K1
T1 sequence (P46091 1-355): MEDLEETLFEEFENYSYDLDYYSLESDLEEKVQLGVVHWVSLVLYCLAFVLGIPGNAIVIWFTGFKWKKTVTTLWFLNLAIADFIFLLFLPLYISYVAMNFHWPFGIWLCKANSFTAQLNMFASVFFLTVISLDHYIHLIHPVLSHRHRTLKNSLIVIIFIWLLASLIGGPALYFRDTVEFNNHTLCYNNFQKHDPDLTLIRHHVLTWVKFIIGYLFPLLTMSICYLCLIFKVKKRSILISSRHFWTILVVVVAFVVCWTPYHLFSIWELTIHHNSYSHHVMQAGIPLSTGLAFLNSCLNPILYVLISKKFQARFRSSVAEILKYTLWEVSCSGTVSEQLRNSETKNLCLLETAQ
Procedure: (§1) β‐Arrestin recruitment (CMKLR1 and GPR1) and cAMP assays (CMKLR1; DiscoverX, Fremont, CA) were carried out with CHO‐K1 cells expressing either human CMKLR1 or GPR1, according to the manufacturer's instructions. […] Data were subsequently normalized to the maximum response to C13 used as the reference agonists in each assay.

human CMKLR1 [1] = biological target: T2, human CMKLR1 (Homo sapiens, UniProt Q99788); experiment: β‐Arrestin recruitment at CMKLR1
T2 construct: host or cells: CHO-K1
T2 sequence (Q99788 1-373): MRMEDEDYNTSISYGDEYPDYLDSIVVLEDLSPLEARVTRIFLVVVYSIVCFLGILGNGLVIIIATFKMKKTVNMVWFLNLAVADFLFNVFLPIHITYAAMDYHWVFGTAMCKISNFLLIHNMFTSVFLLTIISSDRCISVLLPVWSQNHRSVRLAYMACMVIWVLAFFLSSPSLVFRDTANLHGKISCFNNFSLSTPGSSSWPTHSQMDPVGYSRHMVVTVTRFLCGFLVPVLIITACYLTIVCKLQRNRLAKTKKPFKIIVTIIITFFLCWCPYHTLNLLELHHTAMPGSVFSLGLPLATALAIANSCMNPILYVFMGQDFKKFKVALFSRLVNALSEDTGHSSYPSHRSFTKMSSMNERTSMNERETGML
Procedure: as §1

human CMKLR1 [2] = biological target: T2, human CMKLR1; experiment: cAMP inhibition at CMKLR1; conditions: inhibition of forskolin‐evoked cAMP accumulation, CHO‐K1 cells, n: Chemerin 3, C9 4, C13 3, mean±SEM
Procedure: as §1

| Substance | pD2 (human GPR1; β‐arrestin recruitment, CHO‐K1 cells, GPR1, n: Chemerin 3, C9 7, C13 9, mean±SEM) | pD2 (human CMKLR1 [1]; β‐arrestin recruitment, CHO‐K1 cells, CMKLR1, n: Chemerin 3, C9 3, C13 6, mean±SEM) | pD2 (human CMKLR1 [2]) | EC50 (human GPR1) | Emax (human GPR1) | EC50 (human CMKLR1 [1]) | Emax (human CMKLR1 [1]) | EC50 (human CMKLR1 [2]; read-out: pD2 (converted)) |
| --- | --- | --- | --- | --- | --- | --- | --- | --- |
| Chemerin: Human recombinant chemerin(21–157) purchased from R&D Systems | 9.05±0.09 | 9.37±0.05 | 8.45±0.10 | – | – | – | – | – |
| PHSFYFPGQFAFS [C13] | – | – | – | 2.24 nM | 97 ± 3% | 70.8 nM | 94 ± 2% | 0.759 nM |
